Laboratory results published in US20260102340A1, “Therapeutic Formulation” (1000739373 Ontario Ltd., priority 2022, published 2026).

Experiment: Visual solubility of formulations packaged in glass bottles
Assay type: physicochemical
Settings: 100 μg/50 μl in 12% w/w ethanol and HFA 134a, T=5° C. and T=20° C.

Visual solubility in glass bottles: confirmed visually
SMILES: CCCC1O[C@@H]2C[C@H]3[C@@H]4CCC5=CC(=O)C=C[C@]5(C)[C@H]4[C@@H](O)C[C@]3(C)[C@]2(C(=O)CO)O1 (stereo partly shown) [Budesonide]
